The target in assay [1] is α4β7 integrin (Homo sapiens (Human), UniProt P13612+P26010). Description: Integrin Adhesion Assay: Protocol 4 (MAdCAM-coated plate, RPMI-8866 cells with stable LOF mutation of the ITGB1 gene). The class given is cell-based. The settings on record: RPMI-8866 cells with stable LOF mutation of the ITGB1 gene; read-out: Mean IC50 α4β7 KO^a. The procedure, abridged: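 RPMI-8866 cells with CRISPR/Cas9 knockout of ITGB1 (2×10^6/mL) were added to MAdCAM-coated wells with compound (1% DMSO) in HEPES/NaCl buffer with 1 mM MnCl2, 0.1 mM CaCl2 and 1% BSA, then incubated 1 h at 37 °C. After four washes, adherent cells were quantified by CellTiter-Glo luminescence. Percent inhibition versus DMSO and control compound was fitted to 4-parameter curves.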
Sequence of α4β7 integrin (P13612 34-1032): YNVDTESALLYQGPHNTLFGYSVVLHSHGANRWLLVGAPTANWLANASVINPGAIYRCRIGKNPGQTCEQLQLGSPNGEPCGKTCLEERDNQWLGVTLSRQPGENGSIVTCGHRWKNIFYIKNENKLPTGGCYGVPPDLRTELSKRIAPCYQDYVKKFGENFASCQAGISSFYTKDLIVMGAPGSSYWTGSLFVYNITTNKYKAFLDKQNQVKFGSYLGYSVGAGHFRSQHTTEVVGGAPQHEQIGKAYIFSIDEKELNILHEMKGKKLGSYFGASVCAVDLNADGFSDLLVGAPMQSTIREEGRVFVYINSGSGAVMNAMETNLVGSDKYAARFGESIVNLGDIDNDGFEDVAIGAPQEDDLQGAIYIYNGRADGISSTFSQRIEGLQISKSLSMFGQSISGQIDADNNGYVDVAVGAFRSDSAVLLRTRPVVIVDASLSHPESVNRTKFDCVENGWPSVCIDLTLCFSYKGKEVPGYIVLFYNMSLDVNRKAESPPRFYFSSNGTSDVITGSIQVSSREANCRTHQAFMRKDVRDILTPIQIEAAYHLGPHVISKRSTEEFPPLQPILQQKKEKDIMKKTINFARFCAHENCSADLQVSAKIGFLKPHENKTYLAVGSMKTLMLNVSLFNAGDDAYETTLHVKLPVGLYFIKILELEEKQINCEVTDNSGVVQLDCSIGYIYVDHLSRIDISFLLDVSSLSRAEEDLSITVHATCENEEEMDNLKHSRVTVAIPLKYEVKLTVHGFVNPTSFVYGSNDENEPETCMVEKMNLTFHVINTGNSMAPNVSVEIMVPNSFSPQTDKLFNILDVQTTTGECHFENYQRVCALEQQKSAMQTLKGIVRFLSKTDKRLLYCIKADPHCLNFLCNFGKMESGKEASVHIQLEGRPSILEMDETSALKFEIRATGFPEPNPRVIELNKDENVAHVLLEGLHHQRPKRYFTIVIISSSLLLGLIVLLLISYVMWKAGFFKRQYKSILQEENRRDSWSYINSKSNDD
Sequence of α4β7 integrin (P26010 20-798): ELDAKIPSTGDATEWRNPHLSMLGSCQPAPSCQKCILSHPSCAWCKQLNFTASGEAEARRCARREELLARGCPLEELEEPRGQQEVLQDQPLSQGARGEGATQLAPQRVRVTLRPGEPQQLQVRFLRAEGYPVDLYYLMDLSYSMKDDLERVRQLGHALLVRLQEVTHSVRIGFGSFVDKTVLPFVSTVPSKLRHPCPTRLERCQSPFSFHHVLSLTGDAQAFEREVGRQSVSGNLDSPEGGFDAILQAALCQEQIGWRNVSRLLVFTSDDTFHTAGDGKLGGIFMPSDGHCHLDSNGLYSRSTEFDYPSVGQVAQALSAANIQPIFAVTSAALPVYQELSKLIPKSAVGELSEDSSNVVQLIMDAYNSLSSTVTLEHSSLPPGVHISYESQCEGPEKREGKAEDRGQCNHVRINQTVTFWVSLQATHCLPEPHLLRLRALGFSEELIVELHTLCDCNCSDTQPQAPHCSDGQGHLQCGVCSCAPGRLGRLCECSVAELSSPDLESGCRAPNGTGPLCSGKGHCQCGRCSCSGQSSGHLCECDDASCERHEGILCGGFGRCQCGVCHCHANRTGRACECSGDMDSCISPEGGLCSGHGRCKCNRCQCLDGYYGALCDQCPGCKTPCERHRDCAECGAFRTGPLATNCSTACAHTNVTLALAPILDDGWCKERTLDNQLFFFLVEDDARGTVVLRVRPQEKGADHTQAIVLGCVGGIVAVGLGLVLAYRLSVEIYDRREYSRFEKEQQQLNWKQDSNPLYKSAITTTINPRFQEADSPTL

For assay [2], the target named is α4β1 integrin (Homo sapiens (Human), UniProt P05556+P13612). In words: Integrin Adhesion Assay: Protocol 5 (VCAM-coated plate, RPMI-8866 cells with stable LOF mutation of the ITGB7 gene). The assay is classed as cell-based. Conditions: RPMI-8866 cells with stable LOF mutation of the ITGB7 gene; read-out: Mean IC50 α4β1 KO^b. The procedure, abridged: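 RPMI-8866 B cells with CRISPR/Cas9 ITGB7 knockout (clonal, verified by flow cytometry) adhered to VCAM-coated wells for 1 h at 37° C in HEPES/NaCl buffer with 1 mM MnCl2, 0.1 mM CaCl2, 1% BSA, 1% DMSO. Bound cells quantified by CellTiter-Glo luminescence after washing; % inhibition versus DMSO and control, 4-parameter fit.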
Sequence of α4β1 integrin (P13612 34-1032): as the sequence (P13612 34-1032) above
Sequence of α4β1 integrin (P05556 21-798): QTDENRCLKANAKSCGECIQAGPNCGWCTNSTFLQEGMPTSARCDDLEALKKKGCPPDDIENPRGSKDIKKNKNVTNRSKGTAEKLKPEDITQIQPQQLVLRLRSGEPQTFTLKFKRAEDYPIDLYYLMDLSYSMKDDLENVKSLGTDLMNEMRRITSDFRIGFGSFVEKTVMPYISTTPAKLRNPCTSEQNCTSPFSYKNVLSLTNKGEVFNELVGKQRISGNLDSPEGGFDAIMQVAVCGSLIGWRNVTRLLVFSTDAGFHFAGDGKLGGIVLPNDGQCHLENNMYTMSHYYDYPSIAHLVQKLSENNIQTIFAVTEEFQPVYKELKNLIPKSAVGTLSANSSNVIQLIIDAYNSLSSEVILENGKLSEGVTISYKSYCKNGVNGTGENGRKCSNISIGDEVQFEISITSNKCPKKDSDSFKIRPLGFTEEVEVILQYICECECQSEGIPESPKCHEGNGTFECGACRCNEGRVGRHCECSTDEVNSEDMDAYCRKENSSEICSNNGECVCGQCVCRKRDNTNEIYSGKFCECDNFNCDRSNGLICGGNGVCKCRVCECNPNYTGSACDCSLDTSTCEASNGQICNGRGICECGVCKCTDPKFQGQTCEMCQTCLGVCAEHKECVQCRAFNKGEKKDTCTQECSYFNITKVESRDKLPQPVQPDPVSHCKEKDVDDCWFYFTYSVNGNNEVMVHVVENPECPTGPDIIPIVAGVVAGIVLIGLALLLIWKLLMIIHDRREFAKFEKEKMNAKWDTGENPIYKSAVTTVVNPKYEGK

SMILES strings stand for the structures. Bounds are passed on as bounds.

The term IC50 denotes the concentration that inhibits the measured activity by half.

For `O=C(O)[C@H](Cc1cccc2c(-c3nccc4c(CN5CCCCC5)cccc34)cccc12)NC(=O)C1(C(F)(F)F)CCN([C@H]2COCC2(F)F)CC1` [Compound 641], the half-maximal inhibitory concentration (IC50) in assay [1] was less than 10 nM; in assay [2], 100 to 1000 nM.

Regarding `O=C(O)[C@H](Cc1cccc2c(-c3nccc4c(CN5CCCCC5)cccc34)cccc12)NC(=O)C1(C(F)(F)F)CCN([C@@H]2COCC2(F)F)CC1` [Compound 642], the IC50 in assay [1] was less than 10 nM; in assay [2], greater than 1000 nM.

Regarding `COc1ccc(CN2CCCC(C)C2)c(OC)c1-c1cccc2c(C[C@H](NC(=O)c3c(C)cccc3F)C(=O)O)cccc12` (stereo partly shown) [Compound 643], the IC50 in assay [1] is less than 10 nM; in assay [2], 100 to 1000 nM.

Regarding `CN1CCCC1c1cc(-c2cccc3c(C[C@H](NC(=O)C4(C(F)(F)F)CCN(C5COC5)CC4)C(=O)O)cccc23)c2cnccc2c1` (stereo partly shown) [Compound 644], the IC50 is less than 10 nM in assay [1] and 100 to 1000 nM in assay [2].

Take `COc1ccc(CN(C)C)c(OC)c1-c1cccc2c(C[C@H](NC(=O)c3c(F)cccc3C3CC3)C(=O)O)cccc12` [Compound 645]: the half-maximal inhibitory concentration (IC50) is less than 10 nM in assay [1] and greater than 1000 nM in assay [2].

For `COc1ccc(CN2CCCCC2)c(OC)c1-c1cccc2c(C[C@H](NC(=O)c3c(F)cccc3C#N)C(=O)O)cccc12` [Compound 646], the values for the IC50 in assay [1] and in assay [2] were 100 to 1000 nM and greater than 1000 nM, respectively.

For the compound `COc1cccc(F)c1C(=O)N[C@@H](Cc1cccc2c(-c3c(OC)ccc(CN4CCCCC4)c3OC)cccc12)C(=O)O` [Compound 647], the half-inhibitory concentration (IC50) in assay [1] was less than 10 nM; in assay [2] it was 100 to 1000 nM.

In the case of `COc1ccc(CN2CCCCC2)c(OC)c1-c1cccc2c(C[C@H](NC(=O)c3c(F)cccc3-c3ccccc3)C(=O)O)cccc12` [Compound 648], the half-maximal inhibitory concentration (IC50) was less than 10 nM in assay [1] and greater than 1000 nM in assay [2].

As for `CCc1cccc(F)c1C(=O)N[C@@H](Cc1cccc2c(-c3c(OC)ccc(CN4CCCCC4)c3OC)cccc12)C(=O)O` [Compound 649], the 50% inhibitory concentration (IC50) in assay [1] was less than 10 nM; in assay [2], 100 to 1000 nM.

Turning to `COc1ccc(CN2CCOCC2)c(OC)c1-c1cccc2c(C[C@H](NC(=O)c3c(C)cccc3F)C(=O)O)cccc12` [Compound 650], the values for the IC50 in assay [1] and in assay [2] were less than 10 nM and 100 to 1000 nM, respectively.

Take `COc1ccc(CN2C[C@@H](C)O[C@@H](C)C2)c(OC)c1-c1cccc2c(C[C@H](NC(=O)c3c(C)cccc3F)C(=O)O)cccc12` [Compound 651]: the IC50 in assay [1] is less than 10 nM; in assay [2], 100 to 1000 nM.

In the case of `COc1ccc(CN2CCC(CF)CC2)c(OC)c1-c1cccc2c(C[C@H](NC(=O)c3c(C)cccc3F)C(=O)O)cccc12` [Compound 652], the half-maximal inhibitory concentration (IC50) was less than 10 nM in assay [1] and 100 to 1000 nM in assay [2].

For the compound `COc1ccc(CN2CCCC(F)(F)CC2)c(OC)c1-c1cccc2c(C[C@H](NC(=O)c3c(C)cccc3F)C(=O)O)cccc12` [Compound 653], the IC50 in assay [1] is less than 10 nM; in assay [2], 100 to 1000 nM.

For the compound `COc1ccc(CN2CCC3(CCCCC3)CC2)c(OC)c1-c1cccc2c(C[C@H](NC(=O)c3c(C)cccc3F)C(=O)O)cccc12` [Compound 654], the half-inhibitory concentration (IC50) is less than 10 nM in assay [1] and greater than 1000 nM in assay [2].

Regarding `COc1ccc(CN2CCC3(CCOC3)CC2)c(OC)c1-c1cccc2c(C[C@H](NC(=O)c3c(C)cccc3F)C(=O)O)cccc12` [Compound 655], the 50% inhibitory concentration (IC50) is less than 10 nM in assay [1] and greater than 1000 nM in assay [2].

On to `COc1ccc(CN2CCN(C3CCC3)CC2)c(OC)c1-c1cccc2c(C[C@H](NC(=O)c3c(C)cccc3F)C(=O)O)cccc12` [Compound 656], for which the half-maximal inhibitory concentration (IC50) in assay [1] was less than 10 nM; in assay [2], 100 to 1000 nM.

`COc1ccc(CN2CC(OC(C)(C)C)C2)c(OC)c1-c1cccc2c(C[C@H](NC(=O)C3(C(F)(F)F)CCN(CC(F)(F)F)CC3)C(=O)O)cccc12` [Compound 657]: the concentration for half-maximal inhibition (IC50) in assay [1] was less than 10 nM; in assay [2], greater than 1000 nM.

As for `COc1ccc(CN2CCC(C)(C)CC2)c(C(F)(F)F)c1-c1cccc2c(C[C@H](NC(=O)c3c(C)cccc3F)C(=O)O)cccc12` [Compound 658], the values for the 50% inhibitory concentration (IC50) in assay [1] and in assay [2] were less than 10 nM and 100 to 1000 nM, respectively.

Turning to `CC(C)(C)C1CCN(Cc2cccc3c(-c4cccc5c(C[C@H](NC(=O)C6(C(F)(F)F)CCN(CC(F)(F)F)CC6)C(=O)O)cccc45)nccc23)CC1` [Compound 659], the IC50 was 10 to 100 nM in assay [1] and greater than 1000 nM in assay [2].

On to `O=C(O)[C@H](Cc1cccc2c(-c3nccc4c(CN5CCOC(C(F)(F)F)C5)cccc34)cccc12)NC(=O)C1(C(F)(F)F)CCN(CC(F)(F)F)CC1` (stereo partly shown) [Compound 660], for which the IC50 in assay [1] was 10 to 100 nM; in assay [2] it was greater than 1000 nM.

On to `O=C(O)[C@H](Cc1cccc2c(-c3nccc4c(CN5CCC6(CCCCC6)CC5)cccc34)cccc12)NC(=O)C1(C(F)(F)F)CCN(CC(F)(F)F)CC1` [Compound 661], for which the 50% inhibitory concentration (IC50) was 10 to 100 nM in assay [1] and greater than 1000 nM in assay [2].

On to `COc1c(CN2CCCCC2)ccc(C(F)(F)F)c1-c1cccc2c(C[C@H](NC(=O)C3(C(F)(F)F)CCN(CC(F)(F)F)CC3)C(=O)O)cccc12` [Compound 662], for which the figures for the half-maximal inhibitory concentration (IC50) in assay [1] and in assay [2] were 10 to 100 nM and greater than 1000 nM, respectively.

In the case of `COc1ccc(CN2CCC(F)(F)CC2)c(OC)c1-c1cccc2c(C[C@H](NC(=O)c3c(C)cc4cn(CC(F)(F)F)nc4c3F)C(=O)O)cccc12` [Compound 664], the IC50 in assay [1] was 100 to 1000 nM; in assay [2], greater than 1000 nM.

As to `COc1ccc(CN2CCCCC2)c(OC)c1-c1cccc2c(C[C@H](NC(=O)c3c(F)cccc3Br)C(=O)O)cccc12` [Compound 665], the half-maximal inhibitory concentration (IC50) is less than 10 nM in assay [1] and 100 to 1000 nM in assay [2].

Consider `COc1cc(CN2CCCCC2)ccc1-c1cccc2c(C[C@H](NC(=O)c3c(C)cccc3F)C(=O)O)cccc12` [Compound 666], for which the half-maximal inhibitory concentration (IC50) is 10 to 100 nM in assay [1] and greater than 1000 nM in assay [2].

On to `COc1ccc(CN2CCCCC2)cc1-c1cccc2c(C[C@H](NC(=O)c3c(C)cccc3F)C(=O)O)cccc12` [Compound 667], for which the IC50 in assay [1] was 10 to 100 nM; in assay [2] it was greater than 1000 nM.

For `COc1ccc(CN2CCC(F)(F)CC2)c(OC)c1-c1cccc2c(C[C@H](NC(=O)C3(C(F)(F)F)CCN([C@@H]4COC[C@@H]4F)CC3)C(=O)O)cccc12` [Compound 668], the figures for the IC50 in assay [1] and in assay [2] were less than 10 nM and greater than 1000 nM, respectively.

Consider `COc1ccc(CN2CCC(F)(F)CC2)c(OC)c1-c1cccc2c(C[C@H](NC(=O)C3(C(F)(F)F)CCN([C@H]4COC[C@@H]4F)CC3)C(=O)O)cccc12` [Compound 669], for which the half-inhibitory concentration (IC50) in assay [1] is less than 10 nM; in assay [2], greater than 1000 nM.

Take `COc1ccc(CN2CCC(F)(F)CC2)c(OC)c1-c1cccc2c(C[C@H](NC(=O)C3(C(F)(F)F)CCN([C@@H]4COC[C@H]4F)CC3)C(=O)O)cccc12` [Compound 670]: the figures for the half-inhibitory concentration (IC50) in assay [1] and in assay [2] were 10 to 100 nM and 100 to 1000 nM, respectively.

Turning to `COc1ccc(CN2CCC[C@H](F)C2)c(OC)c1-c1cccc2c(C[C@H](NC(=O)c3c(C)cccc3F)C(=O)O)cccc12` [Compound 671], the IC50 in assay [1] is less than 10 nM; in assay [2], 100 to 1000 nM.

With `COc1ccc(CN2CCC[C@@H](F)C2)c(OC)c1-c1cccc2c(C[C@H](NC(=O)c3c(C)cccc3F)C(=O)O)cccc12` [Compound 672], the values for the concentration for half-maximal inhibition (IC50) in assay [1] and in assay [2] were less than 10 nM and 100 to 1000 nM, respectively.

Take `COc1cc2c(c(C(F)(F)F)c1-c1cccc3c(C[C@H](NC(=O)C4(C(F)(F)F)CCN(CC(F)(F)F)CC4)C(=O)O)cccc13)CCN(CC(F)(F)F)C2` [Compound 673]: the values for the concentration for half-maximal inhibition (IC50) in assay [1] and in assay [2] were 10 to 100 nM and greater than 1000 nM, respectively.

These data come from patent publication US20250313535A1, “ALPHA 4 BETA 7 INTEGRIN MODULATORS AND USES THEREOF” (DICE MOLECULES SV, INC., priority 2022, published 2025).
